# Measured values taken from publication PMC9719519, “Non-classical ferroptosis inhibition by a small molecule targeting PHB2” (Nature Communications, 2022).
# Tests used:
# Test in all cases: biochemical
# Parameters in all cases: Eurofins recombinant human kinase profiling, remaining kinase activity as % of control, 10 uM ATP
# Conditions in all cases: ATP 10 uM; read-out: %Ctrl@10 μM
# Abl (H396P) (h) = target: T1, Abl (H396P) (h) (Homo sapiens, UniProt P00519, H396P)
# T1 construct: gene ABL1
# Text: (§1) To rapidly determine the biological target of YL-939, we first tested the activity of YL-939 against a panel of 401 recombinant human protein kinases by using the kinase profiling assay provided by Eurofins, since kinases are often the key components in various signal pathways[35],[36]. […] We then carried out affinity-based proteome profiling assay (ABPP) coupled with bioimaging to identify the biological target of YL-939 (Fig. 4A). To this end, we designed and synthesized a photoaffinity probe, YL-939-1 (Fig. 4A and Supplementary Fig. 5), which is YL-939 attached by a photo-crosslinker (L3) that contains a photo-reactive group diazirine and a clickable alkyne handle.
# Abl (M351T)(h) = target: T2, Abl (M351T)(h) (Homo sapiens, UniProt P00519, M351T)
# T2 construct: gene ABL1
# Text: as §1
# Abl (Q252H) (h) = target: T3, Abl (Q252H) (h) (Homo sapiens, UniProt P00519, Q252H)
# T3 construct: gene ABL1
# Text: as §1
# Axl(h) = Axl(h) (Homo sapiens, UniProt P30530)
# Text: as §1
# B-Raf(h) = target: T4, B-Raf(h) (Homo sapiens, UniProt P15056)
# T4 construct: gene BRAF
# Text: as §1
# CDK12/cyclinK(h) = CDK12/cyclinK(h) (Homo sapiens, UniProt Q9NYV4)
# Text: as §1
# CDKL4(h) = CDKL4(h) (Homo sapiens, UniProt Q5MAI5)
# Text: as §1
# CLK3(h) = CLK3(h) (Homo sapiens, UniProt P49761)
# Text: as §1
# CaMKK1(h) = CaMKK1(h) (Homo sapiens, UniProt Q8N5S9)
# Text: as §1
# DYRK3(h) = DYRK3(h) (Homo sapiens, UniProt O43781)
# Text: as §1
# EGFR(T790M)(h) = EGFR(T790M)(h) (Homo sapiens, UniProt P00533, T790M)
# Text: as §1
# EphB1(h) = EphB1(h) (Homo sapiens, UniProt P54762)
# Text: as §1
# IR(h) = target: T5, IR(h) (Homo sapiens, UniProt P06213)
# T5 construct: gene INSR
# Text: as §1
# JAK2(h) = JAK2(h) (Homo sapiens, UniProt O60674)
# Text: as §1
# LRRK2(h) = LRRK2(h) (Homo sapiens, UniProt Q5S007)
# Text: as §1
# LTK(h) = LTK(h) (Homo sapiens, UniProt P29376)
# Text: as §1
# MAPKAP-K3(h) = target: T6, MAPKAP-K3(h) (Homo sapiens, UniProt Q16644)
# T6 construct: gene MAPKAPK3
# Text: as §1
# PDGFRα(h) = target: T7, PDGFRα(h) (Homo sapiens, UniProt P16234)
# T7 construct: gene PDGFRA
# Text: as §1
# PDHK2(h) = target: T8, PDHK2(h) (Homo sapiens, UniProt Q15119)
# T8 construct: gene PDK2
# Text: as §1
# PKBα(h) = target: T9, PKBα(h) (Homo sapiens, UniProt P31749)
# T9 construct: gene AKT1
# Text: as §1
# PKCδ(h) = target: T10, PKCδ(h) (Homo sapiens, UniProt Q05655)
# T10 construct: gene PRKCD
# Text: as §1
# TrkB(h) = target: T11, TrkB(h) (Homo sapiens, UniProt Q16620)
# T11 construct: gene NTRK2
# Text: as §1
# Txk(h) = Txk(h) (Homo sapiens, UniProt P42681)
# Text: as §1
# T4 sequence (P15056 whole entry): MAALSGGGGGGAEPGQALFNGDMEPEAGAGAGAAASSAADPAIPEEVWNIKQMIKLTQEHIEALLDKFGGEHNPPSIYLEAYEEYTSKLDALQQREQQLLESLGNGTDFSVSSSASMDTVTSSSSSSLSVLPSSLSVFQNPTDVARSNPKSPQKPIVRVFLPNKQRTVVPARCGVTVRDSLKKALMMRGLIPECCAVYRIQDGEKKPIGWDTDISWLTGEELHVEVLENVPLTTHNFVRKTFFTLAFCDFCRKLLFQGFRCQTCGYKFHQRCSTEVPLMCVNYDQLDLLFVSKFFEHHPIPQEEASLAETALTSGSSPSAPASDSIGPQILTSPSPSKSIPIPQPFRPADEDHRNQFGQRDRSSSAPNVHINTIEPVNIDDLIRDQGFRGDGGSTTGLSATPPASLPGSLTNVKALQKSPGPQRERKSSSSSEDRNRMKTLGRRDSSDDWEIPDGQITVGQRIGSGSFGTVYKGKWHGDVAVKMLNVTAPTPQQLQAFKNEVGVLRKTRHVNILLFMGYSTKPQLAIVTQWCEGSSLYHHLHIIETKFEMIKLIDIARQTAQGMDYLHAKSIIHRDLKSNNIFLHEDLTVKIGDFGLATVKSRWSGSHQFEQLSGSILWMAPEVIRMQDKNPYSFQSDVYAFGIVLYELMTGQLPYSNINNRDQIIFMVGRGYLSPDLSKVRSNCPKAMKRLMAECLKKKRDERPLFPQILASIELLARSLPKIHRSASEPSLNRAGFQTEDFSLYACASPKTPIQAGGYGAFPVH
# Chain of CLK3(h) (P49761 whole entry): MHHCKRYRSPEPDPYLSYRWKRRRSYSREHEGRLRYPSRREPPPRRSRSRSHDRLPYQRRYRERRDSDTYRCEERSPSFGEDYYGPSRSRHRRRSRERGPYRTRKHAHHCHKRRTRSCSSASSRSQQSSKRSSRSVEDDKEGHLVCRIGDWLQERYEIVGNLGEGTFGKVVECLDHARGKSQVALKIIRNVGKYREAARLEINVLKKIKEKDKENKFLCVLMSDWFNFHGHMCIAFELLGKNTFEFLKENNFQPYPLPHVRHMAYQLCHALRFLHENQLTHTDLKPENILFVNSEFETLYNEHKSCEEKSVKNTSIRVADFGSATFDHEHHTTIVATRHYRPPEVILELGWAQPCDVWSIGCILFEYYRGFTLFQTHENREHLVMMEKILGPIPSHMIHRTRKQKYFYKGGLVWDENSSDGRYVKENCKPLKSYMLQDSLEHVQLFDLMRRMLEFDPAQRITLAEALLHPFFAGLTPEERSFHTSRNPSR
# Chain of Txk(h) (P42681 whole entry): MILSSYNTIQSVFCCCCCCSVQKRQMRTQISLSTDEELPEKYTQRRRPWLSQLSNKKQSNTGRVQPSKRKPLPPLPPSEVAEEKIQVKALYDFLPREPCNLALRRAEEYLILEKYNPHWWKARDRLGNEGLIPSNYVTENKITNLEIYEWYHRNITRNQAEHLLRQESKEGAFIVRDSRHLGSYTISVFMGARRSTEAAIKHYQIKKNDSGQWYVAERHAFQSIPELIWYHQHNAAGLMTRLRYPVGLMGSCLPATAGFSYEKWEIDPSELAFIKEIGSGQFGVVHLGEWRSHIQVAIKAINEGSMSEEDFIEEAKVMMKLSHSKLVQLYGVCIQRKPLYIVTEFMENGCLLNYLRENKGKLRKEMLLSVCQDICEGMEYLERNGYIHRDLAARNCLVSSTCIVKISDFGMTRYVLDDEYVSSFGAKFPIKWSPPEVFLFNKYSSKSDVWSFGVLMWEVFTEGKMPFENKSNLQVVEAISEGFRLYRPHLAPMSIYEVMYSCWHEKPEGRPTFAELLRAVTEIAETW
# Chain of Axl(h) (P30530 whole entry): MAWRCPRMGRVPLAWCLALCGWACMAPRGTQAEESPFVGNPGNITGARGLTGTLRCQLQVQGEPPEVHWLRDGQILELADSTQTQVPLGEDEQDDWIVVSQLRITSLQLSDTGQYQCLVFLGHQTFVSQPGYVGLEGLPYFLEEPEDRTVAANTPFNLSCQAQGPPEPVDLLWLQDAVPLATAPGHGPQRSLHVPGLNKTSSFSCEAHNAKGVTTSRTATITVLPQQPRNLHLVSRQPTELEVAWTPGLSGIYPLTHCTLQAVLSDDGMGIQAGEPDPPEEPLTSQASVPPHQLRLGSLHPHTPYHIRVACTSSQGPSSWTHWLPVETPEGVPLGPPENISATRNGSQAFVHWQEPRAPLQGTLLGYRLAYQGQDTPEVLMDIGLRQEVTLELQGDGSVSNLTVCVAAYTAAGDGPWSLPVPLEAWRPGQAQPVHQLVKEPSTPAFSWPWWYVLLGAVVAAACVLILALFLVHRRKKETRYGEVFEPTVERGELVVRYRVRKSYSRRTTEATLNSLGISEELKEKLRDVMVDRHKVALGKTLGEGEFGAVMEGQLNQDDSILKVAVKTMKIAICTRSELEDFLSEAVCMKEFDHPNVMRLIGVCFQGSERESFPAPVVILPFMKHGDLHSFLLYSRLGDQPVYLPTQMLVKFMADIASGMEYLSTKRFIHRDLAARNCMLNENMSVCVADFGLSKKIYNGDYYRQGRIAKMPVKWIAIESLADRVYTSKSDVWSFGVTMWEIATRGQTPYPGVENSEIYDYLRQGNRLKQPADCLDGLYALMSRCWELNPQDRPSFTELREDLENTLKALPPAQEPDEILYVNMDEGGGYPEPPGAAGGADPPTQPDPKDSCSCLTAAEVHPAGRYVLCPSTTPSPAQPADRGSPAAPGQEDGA
# Chain of LTK(h) (P29376 whole entry): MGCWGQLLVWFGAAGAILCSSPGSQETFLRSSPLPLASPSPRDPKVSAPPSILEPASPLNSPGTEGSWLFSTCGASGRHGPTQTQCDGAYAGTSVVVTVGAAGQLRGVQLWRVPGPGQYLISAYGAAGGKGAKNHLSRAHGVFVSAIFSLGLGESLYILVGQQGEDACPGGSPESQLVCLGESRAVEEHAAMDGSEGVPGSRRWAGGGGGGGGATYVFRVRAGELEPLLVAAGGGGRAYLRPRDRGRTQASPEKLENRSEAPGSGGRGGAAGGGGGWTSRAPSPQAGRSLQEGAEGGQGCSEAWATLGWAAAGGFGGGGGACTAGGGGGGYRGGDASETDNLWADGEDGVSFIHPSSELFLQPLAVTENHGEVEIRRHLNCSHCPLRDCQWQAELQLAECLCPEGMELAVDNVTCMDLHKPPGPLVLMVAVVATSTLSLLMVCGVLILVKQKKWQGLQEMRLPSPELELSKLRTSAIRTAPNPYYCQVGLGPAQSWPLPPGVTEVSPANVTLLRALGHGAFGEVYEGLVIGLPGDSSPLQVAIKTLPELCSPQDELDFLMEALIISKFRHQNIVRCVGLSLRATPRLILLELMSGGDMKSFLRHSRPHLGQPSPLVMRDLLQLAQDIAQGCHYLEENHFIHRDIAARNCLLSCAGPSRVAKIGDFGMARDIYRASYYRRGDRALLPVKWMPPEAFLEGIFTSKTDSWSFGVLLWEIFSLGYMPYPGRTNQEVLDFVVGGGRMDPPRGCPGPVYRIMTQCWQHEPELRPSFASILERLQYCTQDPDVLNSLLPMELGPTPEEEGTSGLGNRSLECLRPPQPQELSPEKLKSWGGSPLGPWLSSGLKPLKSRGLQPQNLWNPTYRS
# Chain of EGFR(T790M)(h) (P00533 whole entry T790M): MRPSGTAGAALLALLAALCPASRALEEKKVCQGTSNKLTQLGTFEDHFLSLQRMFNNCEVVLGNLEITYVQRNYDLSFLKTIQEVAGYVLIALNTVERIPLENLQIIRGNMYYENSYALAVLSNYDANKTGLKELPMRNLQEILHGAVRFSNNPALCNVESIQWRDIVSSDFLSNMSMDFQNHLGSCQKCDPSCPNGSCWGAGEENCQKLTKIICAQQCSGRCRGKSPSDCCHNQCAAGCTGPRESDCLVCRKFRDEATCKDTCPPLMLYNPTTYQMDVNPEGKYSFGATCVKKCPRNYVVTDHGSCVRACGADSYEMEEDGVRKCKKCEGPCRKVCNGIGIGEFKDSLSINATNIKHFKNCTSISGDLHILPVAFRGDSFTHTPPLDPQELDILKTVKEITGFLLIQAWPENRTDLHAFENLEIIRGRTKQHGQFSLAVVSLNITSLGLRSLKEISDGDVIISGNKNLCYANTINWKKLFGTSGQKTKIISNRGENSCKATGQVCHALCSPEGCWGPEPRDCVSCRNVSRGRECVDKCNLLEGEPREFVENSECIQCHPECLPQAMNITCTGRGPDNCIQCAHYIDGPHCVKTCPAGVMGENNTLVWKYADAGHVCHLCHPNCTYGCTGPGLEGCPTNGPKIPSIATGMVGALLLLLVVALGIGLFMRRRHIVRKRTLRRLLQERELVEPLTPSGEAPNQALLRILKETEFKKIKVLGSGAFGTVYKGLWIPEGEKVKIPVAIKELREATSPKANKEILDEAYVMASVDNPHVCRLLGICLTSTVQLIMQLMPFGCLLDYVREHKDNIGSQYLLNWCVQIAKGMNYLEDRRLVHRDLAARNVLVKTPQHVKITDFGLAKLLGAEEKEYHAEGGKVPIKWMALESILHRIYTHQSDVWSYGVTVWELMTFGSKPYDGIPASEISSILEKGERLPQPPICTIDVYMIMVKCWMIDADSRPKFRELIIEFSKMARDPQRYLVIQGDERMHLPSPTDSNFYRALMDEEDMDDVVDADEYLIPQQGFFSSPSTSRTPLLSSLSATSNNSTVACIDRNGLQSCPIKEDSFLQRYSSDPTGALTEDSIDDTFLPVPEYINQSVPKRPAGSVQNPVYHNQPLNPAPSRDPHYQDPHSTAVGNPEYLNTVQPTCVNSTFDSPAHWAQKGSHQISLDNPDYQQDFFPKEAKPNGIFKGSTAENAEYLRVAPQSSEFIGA
smiles,measurement,setting,value
C1=C(c2nc(-c3cnn(C4CCNCC4)c3)cn3cc(-c4ccccc4)nc23)CCOC1 [YL-939],remaining activity at 10 µM,Abl (H396P) (h),91%
same,remaining activity at 10 µM,Abl (M351T)(h),108%
same,remaining activity at 10 µM,Abl (Q252H) (h),122%
same,remaining activity at 10 µM,Axl(h),84%
same,remaining activity at 10 µM,B-Raf(h),84%
same,remaining activity at 10 µM,CDK12/cyclinK(h),99%
same,remaining activity at 10 µM,CDKL4(h),76%
same,remaining activity at 10 µM,CLK3(h),96%
same,remaining activity at 10 µM,CaMKK1(h),91%
same,remaining activity at 10 µM,DYRK3(h),77%
same,remaining activity at 10 µM,EGFR(T790M)(h),138%
same,remaining activity at 10 µM,EphB1(h),99%
same,remaining activity at 10 µM,IR(h),114%
same,remaining activity at 10 µM,JAK2(h),90%
same,remaining activity at 10 µM,LRRK2(h),103%
same,remaining activity at 10 µM,LTK(h),108%
same,remaining activity at 10 µM,MAPKAP-K3(h),102%
same,remaining activity at 10 µM,PDGFRα(h),76%
same,remaining activity at 10 µM,PDHK2(h),87%
same,remaining activity at 10 µM,PKBα(h),68%
same,remaining activity at 10 µM,PKCδ(h),81%
same,remaining activity at 10 µM,TrkB(h),81%
same,remaining activity at 10 µM,Txk(h),73%
